For 2 compounds, ΔTm results are on record in publication PMC4871321 (Angewandte Chemie (Weinheim an Der Bergstrasse, Germany), 2015).

The target in this assay is T1, BRD4(1) (Homo sapiens, UniProt O60885).
T1 construct: first bromodomain
Description: biochemical. Also noted: differential scanning fluorimetry, SYPRO Orange, shift of melting temperature of 2 uM bromodomain. Conditions: read-out: BRD4(1) ΔTm (°C).

In the case of `Cc1cc(=O)n(C)c2cc(N3C(=O)CC[C@H](NC(=O)OC(C)(C)C)[C@H]3C)ccc12` (relative stereo) [compound 21, 21], the ΔTm at 10 µM was determined as 0.33 °C. Take `Cc1cc(=O)n(C)c2cc(N3C[C@@H](NC(=O)OC(C)(C)C)[C@H](C)CC3=O)ccc12` (relative stereo) [compound 22, 22]: the thermal shift (ΔTm) at 10 µM is 0.19 °C.
